# Assay results as given in patent US11850256B2, “Small molecule-mediated restoration of airway surface physiology in human cystic fibrosis lung epithelia” (The Board of Trustees of the University of Illinois, priority 2016, dated 2023).
# “Also recorded” adds a separate entry of the source.
# How the values were obtained:
# [1] = tested on: CuFi-4 (ΔF508/G551D) monolayers; assay: 14C bicarbonate transport in CuFi-4 monolayers; type: cell-based, human
# Method: (§1) ^14C bicarbonate was administered to the basolateral side of monolayers to trace ion movement through the cells over time. Epithelial monolayers grown from the patient-derived lung epithelial cell line CuFi-1 (ΔF508/ΔF508) were also studied. The genotype ΔF508/ΔF508 represents about 46.5% of all CF patients and is considered a relatively severe deficiency. Permeabilization of the apical membrane to bicarbonate anions with AmB could correct the flux abnormality resulting from the loss of CFTR. Upon treatment with 2 μM AmB for 48 hours, a decrease in intracellular ^14C bicarbonate and an increase in ASL ^14C bicarbonate compared to CuFi-1 alone was observed (FIGS. 15A and 15B).
# Ivacaftor is a clinically approved and effective drug to treat cystic fibrosis, and it was used as a control in some of the experiments. Following literature precedent for in vitro ivacaftor administration, CuFi-4 (ΔF508/G551D) epithelia were treated with forskolin (Fsk) to promote phosphorylation of CFTR and ivacaftor (Iva) to potentiate conductance through the channel. E. H. Chang et al., Int Forum Allergy Rhinol 5, 178-181 (2015); F. Van Goor et al. (2009) Proc. Natl. Acad. Sci. 106, 18825-18830. […] This provides evidence that while both ivacaftor and AmB increase bicarbonate transport, AmB is operating through a genotype-agnostic mechanism.
# [2] = tested on: CuFi-1 epithelial monolayers; assay: pH-stat apical chamber alkalization in CuFi-1 monolayers; type: cell-based, human
# Method: (§2) To directly probe whether AmB-mediated bicarbonate transport causes the ASL pH increase, pH-stat experiments were performed in large NuLi and CuFi-1 epithelial monolayers either in the presence of bicarbonate or in bicarbonate-free solution. Cho, D Y, et al., (2009) Am J Rhinol Allergy 23, e10-13; Cho, D Y, et al., (2011) Int Forum Allergy Rhinol 1, 123-127. […] To address the potential role of proton absorption in the alkalization of the ASL, these experiments were repeated in bicarbonate-free buffer.
# [3] = tested on: CF primary human lung epithelia; assay: ASL viscosity in CF primary human lung epithelia; type: cell-based; settings: 2 μM, 48 h; vs untreated CF epithelia
# Method: Non-CF (control) and CF primary human lung epithelia were prepared and maintained in vitro as previously described. Pezzulo A A et al. (2012) Nature 487: 109-113. These cells were treated with AmB at a final concentration of 2 μM for 48 h, and then ASL viscosity was measured.
# [4] = tested on: CuFi-1 (ΔF508/ΔF508) epithelial monolayers; assay: 14C bicarbonate transport in CuFi-1 monolayers; type: cell-based, human
# Method: as §1
# [5] = tested on: CF primary human lung epithelia; assay: Change in short-circuit current in CF primary human lung epithelia after AmB treatment; type: cell-based; settings: 2 μM, 48 h
# Method: Non-CF (control) and CF primary human lung epithelia were prepared and maintained in vitro as previously described. Pezzulo A A et al. (2012) Nature 487: 109-113. For example, epithelial cells were isolated from the trachea and bronchi by enzymatic digestion, seeded onto collagen-coated semi-permeable membranes (0.6 cm^2 Millicell-PCF; Millipore, Bedford, MA), and grown at the air-liquid interface as previously described in Karp P H et al. (2002) In Wise C., Epithelial Cell Culture Protocols, Humana Press, Inc. 188: 115-137. Culture medium, a 1:1 mixture of Dulbecco's modified Eagle's medium and Ham's F12 medium (DMEM/F12), was supplemented with 2% Ultroser G (PALL France SAS; Saint Germain-en-Laye, France). Differentiated epithelia were used at least 14 days after seeding.
# These cells were treated with AmB at a final concentration of 2 μM for 48 h, and then change in short-circuit current was measured.
# [6] = 13C NMR-based bicarbonate release assay in liposomes
# Method: (§3) In some embodiments, a small molecule or a complex can permeabilize the apical membrane of differentiated human lung epithelia to bicarbonate. A series of natural and synthetic small molecules reported previously to permeabilize liposomes, cells, and/or nasal epithelia of mice to anions were tested for the capacity to increase short circuit current across CuFi-1 epithelial monolayers using an Ussing chamber. […] The capacity for AmB to transport bicarbonate was tested using an adapted ^13C NMR-based assay in cholesterol-containing POPC liposomes.
# [7] = Proton release (1:100 AmB:lipid vs DMSO); settings: FIG. 18
# Method: FIG. 18 depicts the effect of 1:100 AmB:lipid (circles) compared to DMSO (triangles) on proton release.
# as §2
# [8] = tested on: Human red blood cells (RBCs); assay: Hemolysis of human red blood cells; type: cell-based
# Method: Against Toxicity but Preserves Permeabilization of CF Human Lung Epithelia Human red blood cells (RBCs) were separated from whole blood by centrifugation and then exposed to AmB or pre-formed AmB:Chol complexes (1:5) (Example 8) over a range of concentrations up to 20 μM. Hemolysis was then measured.
# [9] = tested on: CuFi-1 epithelial monolayers; assay: Ussing chamber short circuit current (permeabilization) across CuFi-1 monolayers; type: cell-based, human
# Method: as §3
# In a separate set of experiments, CuFi-1 cells in culture were treated with AmB in DMSO, pre-formed AmB:Chol complexes (1:5), or DMSO alone, and then short-circuit current was measured over time out to about 70 minutes.
structure (smiles),measurement,setting,value
"C[C@@H]1[C@H](O)[C@@H](C)/C=C/C=C/C=C/C=C/C=C/C=C/C=C/[C@H](O[C@@H]2O[C@H](C)[C@@H](O)[C@H](N)[C@@H]2O)C[C@@H]2O[C@](O)(C[C@@H](O)C[C@@H](O)[C@H](O)CC[C@@H](O)C[C@@H](O)CC(=O)O[C@H]1C)C[C@H](O)[C@H]2C(=O)O [AmB, amphotericin B]",ASL 14C bicarbonate,[1],significantly increase; also recorded: increase bicarbonate in ASL
same,apical chamber alkalization,[2]; bicarbonate-free buffer,did not increase apical chamber alkalization; also recorded: No change in apical chamber alkalization
same,apical chamber alkalization,[2]; in the presence of basolateral bicarbonate,increase apical chamber alkalization
same,ASL viscosity,[3],significantly decreased ASL viscosity
same,intracellular 14C bicarbonate,"[4]; 2 μM, 48 hours, compared to CuFi-1 alone",decrease
same,"ASL 14C bicarbonate, apical treatment",[4]; CuFi-1,significantly increase; also recorded: increase bicarbonate in ASL
same,"apical transport of bicarbonate, basolateral treatment","[4]; CuFi-1, basolateral",unable to increase apical transport of bicarbonate; also recorded: not basolateral
same,change in short-circuit current compared to untreated CF epithelia,[5],no significant difference
same,release of 13C-labelled bicarbonate from liposomes,[6],Robust and rapid release
same,proton transport,[7],able to transport protons
same,concentration giving 50 percent hemolysis,[8],about 7 μM
same,concentration giving 100 percent hemolysis,[8],about 10 μM
same,permeabilization / increase in short circuit current,[9],exceptionally effective
